Test results: patent US10196401B2, “Spiro-lactam NMDA receptor modulators and uses thereof” (Aptinyx Inc., priority 2016, dated 2019)

Tests used:
[1] = test system: Sprague Dawley rats; test: Bennett model of mechanical analgesia (paw withdrawal threshold); type: in vivo, rat; settings: single dose of 10 mg/kg PO; 1 hr, 24 hrs and 1 week post-dosing
Description: Bennett G J, Xie Y K, “A peripheral mononeuropathy in rat that produces disorders of pain sensation like those seen in man,” Pain 33:87-107, 1988. […] Vehicle animals receive the surgery and then receive vehicle rather than test compound. Animals were tested 1 hr, 24 h and 1 wk post-test compound or vehicle administration.
Male 2-3 month old Sprague Dawley rats were used. Harlan was the supplier for all studies. Rats were housed in Lucite cages with aspen wood chip bedding, maintained on a 12:12 light:dark cycle (lights on at 5 AM), and given ad libitum access to Purina lab chow (USA) and tap water throughout the study.
Rats were anesthetized using inhaled isoflurane (2.5%). Spared nerve injury surgery was performed as previously described (Bennett and Xie, 1988). An incision (˜1.5 cm in length) was made with a scalpel blade dorsally through skin on the right hindlimb, parallel and posterior to femur. Using a small pointed hemostat, the biceps femoris and gluteus superficialis muscles were separated. Using curved blunt forceps, the common sciatic nerve was isolated and exposed. For the mechanical analgesia studies, the whole sciatic nerve was ligated. Using hemostats/forceps and chromic gut (5-0), the nerve was loosely ligated with a square knot; 3 ligatures, 1 mm apart were placed on the nerve. […] For the thermal analgesia studies, the common peroneal and tibial branches of the sciatic nerve were ligated and cut, and the sural branch was spared. See Decosterd I, Woolf C J, “Spared nerve injury: an animal model of persistent peripheral neuropathic pain,” Pain 87:149-158, 2000. Testing occurred 1-2 weeks post-surgery.
During testing, rats were acclimated to the surface of a suspended wire mesh grid (1 cm×1 cm, with the wire being 0.3 cm in diameter) for 15-20 min. Starting from the smallest, each Von Frey filament was pressed perpendicularly to the plantar surface of the affected (ipsilateral) hindpaw until slightly bent and then held for 6 second. […]

[2] = target: NMDAR2D (Homo sapiens, UniProt O15399); test: Potentiation of [3H]MK-801 binding, NMDAR2D; set-up: species or system rat; settings: for Conclusion / % 1 mM Glycine: NMDAR2D binding profile; for % 1 mM Glycine: relative to 1 mM glycine; for potentiation of [3H]MK-801 binding, subtype preference in words: NR2D, FIG. 2 / FIG. 6
Chain of NMDAR2D (O15399 28-1336, species assumed, other chains not shown): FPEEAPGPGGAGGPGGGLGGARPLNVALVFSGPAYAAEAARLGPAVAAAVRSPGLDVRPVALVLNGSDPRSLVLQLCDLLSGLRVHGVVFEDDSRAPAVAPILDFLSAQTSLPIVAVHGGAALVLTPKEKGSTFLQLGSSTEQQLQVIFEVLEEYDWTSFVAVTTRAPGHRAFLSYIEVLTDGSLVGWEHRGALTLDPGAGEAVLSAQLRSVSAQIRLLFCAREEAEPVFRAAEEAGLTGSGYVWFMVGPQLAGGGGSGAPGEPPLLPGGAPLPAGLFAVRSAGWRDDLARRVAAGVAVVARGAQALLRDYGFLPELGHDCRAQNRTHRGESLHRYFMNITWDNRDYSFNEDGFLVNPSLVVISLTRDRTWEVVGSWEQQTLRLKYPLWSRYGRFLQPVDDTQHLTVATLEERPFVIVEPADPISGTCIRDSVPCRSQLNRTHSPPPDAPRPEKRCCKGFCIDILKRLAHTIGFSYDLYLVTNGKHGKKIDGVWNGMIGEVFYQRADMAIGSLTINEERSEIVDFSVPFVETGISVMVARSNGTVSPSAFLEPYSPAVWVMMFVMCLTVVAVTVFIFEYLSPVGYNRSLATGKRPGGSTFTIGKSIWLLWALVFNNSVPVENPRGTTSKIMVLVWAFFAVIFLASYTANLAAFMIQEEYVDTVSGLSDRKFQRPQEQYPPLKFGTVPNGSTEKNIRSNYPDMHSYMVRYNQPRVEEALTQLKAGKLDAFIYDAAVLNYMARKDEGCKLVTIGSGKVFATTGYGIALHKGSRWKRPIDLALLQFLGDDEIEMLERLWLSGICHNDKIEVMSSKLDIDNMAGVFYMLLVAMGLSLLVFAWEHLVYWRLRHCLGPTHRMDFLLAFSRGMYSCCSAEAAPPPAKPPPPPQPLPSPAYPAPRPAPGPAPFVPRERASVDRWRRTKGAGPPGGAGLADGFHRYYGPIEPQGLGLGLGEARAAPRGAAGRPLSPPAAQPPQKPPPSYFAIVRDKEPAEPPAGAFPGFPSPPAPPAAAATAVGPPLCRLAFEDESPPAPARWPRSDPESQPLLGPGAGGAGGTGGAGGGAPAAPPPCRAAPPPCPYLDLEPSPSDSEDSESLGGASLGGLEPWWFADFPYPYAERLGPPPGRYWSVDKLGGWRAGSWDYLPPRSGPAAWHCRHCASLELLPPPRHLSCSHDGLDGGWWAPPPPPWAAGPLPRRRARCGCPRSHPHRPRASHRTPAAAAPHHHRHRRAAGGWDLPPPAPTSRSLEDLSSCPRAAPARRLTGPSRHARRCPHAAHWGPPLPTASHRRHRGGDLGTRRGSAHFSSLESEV
Description: (§1) Assays were conducted as described by Moskal et al., “GLYX-13: a monoclonal antibody-derived peptide that acts as an N-rnethyl-D-aspartate receptor modulator,” Neuropharmacology, 49, 1077-87, 2005. The potentiation of [^3H]MK-801 binding (5 nrM; 22.5 Ci/mmol) to well washed rat cortical membranes (200 μg) was measured under non-equilibrium conditions (15 min @ 25° C.) in the presence of increasing concentrations of Compound A.
(§2) Assays were conducted as described above in Example 5, by Moskal et al. (2005).

[3] = Plasma stability, human; type: in vitro ADME
Description: (§3) Microsomal and plasma stability of Compound A was investigated. The following table indicates the percent of Compound A remaining after 60 minutes.
(§4) Microsomal and plasma stability of Compound B was investigated. The following table indicates the percent of Compound B remaining after 60 minutes.

[4] = target: NMDAR2B (Homo sapiens, UniProt Q13224); test: Potentiation of [3H]MK-801 binding, NMDAR2B; set-up: species or system rat; settings: for % 1 mM Glycine: relative to 1 mM glycine
[5] = test system: SD rats; test: Novelty-induced hypophagia (NIH) test; type: in vivo, rat; settings: 1 h before a single 10-min test session
From the text: This Example relates to the assessment of the anxiolytic effect of treatment in the stress-induced anxiety model, novelty induced hypophagia. This assay is also sensitive to the rapid acting antidepressants ketamine and GLYX-13 (Li et al., “mTOR-dependent synapse formation underlies the rapid antidepressant effects of NMDA antagonists,” Science 329:959-964, 2010; and Burgdorf et al., 2013). See also Bodnoff et al., “A comparison of the effects of diazepam versus several typical and atypical anti-depressant drugs in an animal model of anxiety,” Psychopharmacology, 97:277-279, 1989.
Testing was conducted as described by (Burgdorf et al., 2013). […] Animals were food deprived overnight before testing, and lab chow was placed in the center chamber of an open field (40×40×20 cm) for 10 min under dim red lighting. Between testing each animal, feces and urine were removed from the apparatus. After NIHI testing, the latency to eat in the animal's home cage was determined as a control to ensure the effect on eating is specific to the novel environment. Animals were videotaped, and latency (sec) for the animal to take the first bite of food was manually scored offline.
A single point per dose group that was 2 or more standard deviations from the mean was considered an outlier and was excluded from the data analysis. […]

[6] = Plasma protein binding, rat; type: in vitro ADME; settings: read-out: plasma protein binding (% bound) (converted)
Description: Unbound drug concentration in the brain was also investigated, and plasma protein binding assays were conducted. The following table (% bound) indicates results for Compound A.
Unbound drug concentration in the brain was also investigated, and plasma protein binding assays were conducted. The following table (% bound) indicates results for Compound B.

[7] = target: NMDAR2C (Homo sapiens, UniProt Q14957); test: Potentiation of [3H]MK-801 binding, NMDAR2C; set-up: species or system rat; settings: for % 1 mM Glycine: relative to 1 mM glycine
Chain of NMDAR2C (Q14957 20-1233, species assumed, other chains not shown): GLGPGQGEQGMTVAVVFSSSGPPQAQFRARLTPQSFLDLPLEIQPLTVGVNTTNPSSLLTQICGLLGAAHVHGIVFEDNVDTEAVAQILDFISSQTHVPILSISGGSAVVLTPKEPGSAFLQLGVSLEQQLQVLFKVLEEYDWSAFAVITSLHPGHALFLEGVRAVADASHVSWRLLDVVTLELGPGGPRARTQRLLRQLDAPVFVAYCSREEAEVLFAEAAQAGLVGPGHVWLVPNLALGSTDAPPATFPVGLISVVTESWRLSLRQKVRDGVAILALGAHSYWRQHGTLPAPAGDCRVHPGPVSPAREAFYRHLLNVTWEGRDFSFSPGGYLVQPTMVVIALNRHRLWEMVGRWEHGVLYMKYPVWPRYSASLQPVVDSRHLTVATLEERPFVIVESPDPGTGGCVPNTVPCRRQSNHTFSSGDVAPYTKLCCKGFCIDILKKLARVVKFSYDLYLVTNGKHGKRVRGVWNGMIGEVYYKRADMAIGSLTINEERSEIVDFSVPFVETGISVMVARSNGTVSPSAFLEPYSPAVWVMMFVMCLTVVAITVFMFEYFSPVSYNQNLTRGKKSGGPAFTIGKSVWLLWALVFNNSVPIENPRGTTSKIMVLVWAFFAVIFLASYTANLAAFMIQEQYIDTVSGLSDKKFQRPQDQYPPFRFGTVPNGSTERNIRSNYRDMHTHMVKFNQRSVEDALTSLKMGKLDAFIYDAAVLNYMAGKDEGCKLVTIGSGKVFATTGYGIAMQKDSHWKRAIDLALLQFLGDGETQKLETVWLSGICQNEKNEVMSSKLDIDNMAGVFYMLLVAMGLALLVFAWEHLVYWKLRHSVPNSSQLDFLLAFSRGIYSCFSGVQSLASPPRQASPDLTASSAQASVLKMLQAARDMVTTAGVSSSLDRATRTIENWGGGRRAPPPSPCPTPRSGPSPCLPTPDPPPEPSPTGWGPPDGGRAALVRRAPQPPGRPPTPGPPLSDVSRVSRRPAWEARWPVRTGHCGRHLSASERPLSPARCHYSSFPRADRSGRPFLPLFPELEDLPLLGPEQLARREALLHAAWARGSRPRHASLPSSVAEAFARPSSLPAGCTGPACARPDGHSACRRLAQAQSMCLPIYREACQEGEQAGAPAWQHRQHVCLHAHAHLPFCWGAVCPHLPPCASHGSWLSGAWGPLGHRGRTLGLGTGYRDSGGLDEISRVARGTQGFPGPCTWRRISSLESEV

[8] = target: NMDAR2A (Homo sapiens, UniProt Q12879); test: Potentiation of [3H]MK-801 binding, NMDAR2A; set-up: species or system rat; settings: for Conclusion / % 1 mM Glycine: NMDAR2A binding profile; for % 1 mM Glycine: relative to 1 mM glycine; for potentiation of [3H]MK-801 binding, subtype preference in words: NR2A, FIG. 2 / FIG. 6
Chain of NMDAR2A (Q12879 23-1464, species assumed, other chains not shown): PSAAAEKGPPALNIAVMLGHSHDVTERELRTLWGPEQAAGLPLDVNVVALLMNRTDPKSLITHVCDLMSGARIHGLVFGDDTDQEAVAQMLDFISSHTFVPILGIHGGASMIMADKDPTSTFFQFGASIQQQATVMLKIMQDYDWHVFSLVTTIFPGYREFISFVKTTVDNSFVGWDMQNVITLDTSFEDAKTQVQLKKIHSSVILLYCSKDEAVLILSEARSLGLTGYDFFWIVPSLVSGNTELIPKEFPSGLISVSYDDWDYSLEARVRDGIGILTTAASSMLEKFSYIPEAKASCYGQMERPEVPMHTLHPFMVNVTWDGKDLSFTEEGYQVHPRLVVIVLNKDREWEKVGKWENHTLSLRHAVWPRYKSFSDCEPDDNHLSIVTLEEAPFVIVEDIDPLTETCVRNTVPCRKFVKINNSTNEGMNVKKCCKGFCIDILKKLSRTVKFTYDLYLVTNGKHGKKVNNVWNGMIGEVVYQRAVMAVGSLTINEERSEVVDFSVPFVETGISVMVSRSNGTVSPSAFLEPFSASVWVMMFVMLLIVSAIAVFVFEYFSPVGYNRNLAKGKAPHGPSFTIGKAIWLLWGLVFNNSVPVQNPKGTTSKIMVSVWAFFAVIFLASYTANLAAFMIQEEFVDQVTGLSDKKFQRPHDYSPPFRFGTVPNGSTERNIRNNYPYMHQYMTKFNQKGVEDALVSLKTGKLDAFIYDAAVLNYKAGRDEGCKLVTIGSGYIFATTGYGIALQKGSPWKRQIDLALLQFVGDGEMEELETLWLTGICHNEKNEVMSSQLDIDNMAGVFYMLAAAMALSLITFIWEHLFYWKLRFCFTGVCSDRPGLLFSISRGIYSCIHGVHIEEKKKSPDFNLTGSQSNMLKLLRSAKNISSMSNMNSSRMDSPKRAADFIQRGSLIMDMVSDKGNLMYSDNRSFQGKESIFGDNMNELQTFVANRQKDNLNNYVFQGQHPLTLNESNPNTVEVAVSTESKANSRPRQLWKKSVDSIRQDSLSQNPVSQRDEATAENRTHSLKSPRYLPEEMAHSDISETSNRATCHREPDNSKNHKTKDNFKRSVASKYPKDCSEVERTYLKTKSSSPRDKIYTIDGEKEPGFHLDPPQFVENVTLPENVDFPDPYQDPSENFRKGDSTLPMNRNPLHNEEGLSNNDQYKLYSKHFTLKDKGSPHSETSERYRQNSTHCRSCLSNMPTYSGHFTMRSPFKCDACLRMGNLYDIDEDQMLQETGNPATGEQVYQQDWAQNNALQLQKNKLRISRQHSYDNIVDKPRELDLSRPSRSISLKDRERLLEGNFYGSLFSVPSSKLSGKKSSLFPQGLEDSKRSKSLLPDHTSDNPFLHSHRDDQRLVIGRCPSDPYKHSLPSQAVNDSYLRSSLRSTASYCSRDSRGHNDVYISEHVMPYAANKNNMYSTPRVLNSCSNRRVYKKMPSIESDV
Description: as §1, §2

[9] = Plasma stability, rat; type: in vitro ADME
Description: as §3, §4

Row | Conclusion [2] | % 1 mM Glycine [2] [%] | potentiation of [3H]MK-801 binding, subtype preference in words [2] | Plasma stability, percent remaining after 60 minutes [3] [%] | Conclusion ([4]; NMDAR2B binding profile) | EC50 ([4]; NMDAR2B binding profile, wild-type) [nM] | % 1 mM Glycine ([4]; NMDAR2B binding profile) [%] | fraction unbound [6] | Conclusion ([7]; NMDAR2C binding profile) | EC50 ([7]; NMDAR2C binding profile, wild-type) [nM] | % 1 mM Glycine ([7]; NMDAR2C binding profile) [%] | Conclusion [8] | % 1 mM Glycine [8] [%] | potentiation of [3H]MK-801 binding, subtype preference in words [8] | Plasma stability, percent remaining after 60 minutes [9] [%] | potentiation of [3H]MK-801 binding, subtype preference in words ([4]; NR2B, FIG. 6) | potentiation of [3H]MK-801 binding, subtype preference in words ([7]; NR2C, FIG. 6) | Structure (SMILES) | mechanical analgesic effect in the Bennett model [1] | latency to eat in the NIH test (anxiolytic effect) ([5]; 10-1000 μg/kg PO) | latency to eat in the NIH test (anxiolytic effect) ([5]; 0.0001-1 μg/kg PO)
1 | WT2D no | 0 | no binding to NR2D | 100 | WT2B agonist | 3.09 | 68.22 | 0.701 | WT2C agonist | 1.51 | 66.21 | WT2A agonist | 47.42 | highly NR2A preferring | 92 |  |  | CC(C)CN1CCC[C@]12CN([C@H](C(N)=O)[C@@H](C)O)C2=O [Compound A, (2S,3R)-3-hydroxy-2-((R)-5-isobutyl-1-oxo-2,5-diazaspiro[3.4]octan-2-yl)butanamide] | produced a mechanical analgesic effect | produces an anxiolytic effect | 
2 | agonist | 66.21 | highly NR2B and NR2D preferring | 100 | WT2B agonist |  | 49.02 | 0.802 | WT2C agonist |  | 85.37 | WT2A agonist | 24.48 | lower potency in NR2A and NR2C | 89 | highly NR2B and NR2D preferring | lower potency in NR2A and NR2C | CC(C)CN1CCC[C@@]12CN([C@H](C(N)=O)[C@@H](C)O)C2=O [Compound B, (2S,3R)-3-hydroxy-2-((S)-5-isobutyl-1-oxo-2,5-diazaspiro[3.4]octan-2-yl)butanamide] | produced a mechanical analgesic effect |  | produces an anxiolytic effect
